The values that follow come from paper PMC8881610 (Nature Communications, 2022).

In assay [1] the target is GCGR (Homo sapiens, UniProt P47871, R199A). Nature of the assay: Whole-cell binding assay, competition with 125I-GCG. As to conditions: GCGR R199A, CHO-K1. On the set-up: V5 (C); 6×His (C); expressed in transfected cells; host or cells: CHO-K1. A digest of the protocol:
(§1)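 CHO-K1 cells transiently transfected with WT or mutant receptor constructs, washed in F-12 with 0.1% BSA or casein/33 mM HEPES and incubated 2 h at 37 °C. Bound radioactivity counted after Triton lysis; data normalized to WT and fitted to a three-parameter logistic equation.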

The target of assay [2] is GCGR (Homo sapiens, UniProt P47871, D195A/Q142A/R199A). The assay is described as above. As to conditions: GCGR Q142A/D195A/R199A, CHO-K1. On the set-up: V5 (C); 6×His (C); expressed in transfected cells; host or cells: CHO-K1. A digest of the protocol:
as §1

Assay [3] has as its target GCGR (Homo sapiens, UniProt P47871, Y202A). The description is as above. The arrangement: V5 (C); 6×His (C); expressed in transfected cells; host or cells: CHO-K1. The conditions noted are these: GCGR Y202A, CHO-K1. The gist of the method:
as §1

In assay [4] the target is GCGR (Homo sapiens, UniProt P47871, D195A). The assay is described as above. The conditions noted are these: GCGR D195A; CHO-K1; read-out: binding pIC50 (converted). The arrangement: V5 (C); 6×His (C); expressed in transfected cells; host or cells: CHO-K1. A digest of the protocol: as §1
For assay [5], the target named is GCGR (Homo sapiens, UniProt P47871, Q293A). The assay is described as above. The arrangement: V5 (C); 6×His (C); expressed in transfected cells; host or cells: CHO-K1. The conditions noted are these: GCGR Q293A, CHO-K1. The gist of the method: as §1
In assay [6] the target is GCGR (Homo sapiens, UniProt P47871, W215A). Described as above. The arrangement: V5 (C); 6×His (C); expressed in transfected cells; host or cells: CHO-K1. As to conditions: GCGR W215A, CHO-K1. The gist of the method: as §1
Assay [7] deals with GCGR (Homo sapiens, UniProt P47871, W87A). The assay is described as above. On the set-up: V5 (C); 6×His (C); expressed in transfected cells; host or cells: CHO-K1. The conditions noted are these: GCGR W87A, CHO-K1. The gist of the method: as §1
Assay [8] concerns the target GCGR (Homo sapiens, UniProt P47871, K205A). Described as above. The arrangement: V5 (C); 6×His (C); expressed in transfected cells; host or cells: CHO-K1. The conditions noted are these: GCGR K205A, CHO-K1. A digest of the protocol:
as §1

Assay [9] addresses T1, GIPR (Homo sapiens, UniProt P48546, Y145A).
T1 construct: acylated tirzepatide to the full-length or modified; Flag; expressed in transfected cells
Nature of the assay: Whole-cell binding assay, competition with 125I-GIP1-42. As to conditions: GIPR Y145A; CHO-K1. The procedure: (§2) Human embryonic kidney 293 cells containing SV40 large T-antigen (HEK293T) were cultured in DMEM (Gibco) supplemented with 10% (v/v) fetal bovine serum (FBS, Gibco), 1 mM sodium pyruvate (Gibco) and 100 units/mL penicillin and 100 μg/mL streptomycin at 37 °C in 5% CO2. Chinese hamster ovary (CHO-K1) cells were cultured in F-12 (Gibco) containing 10% FBS, 100 units/mL penicillin and 100 μg/mL streptomycin at 37 °C in 5% CO2. For cAMP and receptor expression assays, HEK293T cells were seeded into 6-well cell culture plates at a density of 7 × 10^5 cells per well. After overnight incubation, cells were transfected with GIPR, GLP-1R or GCGR construct using Lipofectamine 2000 or Lipofectamine 3000 transfection reagent (Invitrogen). For whole-cell binding assay, CHO-K1 cells were seeded into 96-well fibronectin-treated cell culture plates at a density of 3 × 10^4 cells per well. […] Following 24 h culturing, the transfected cells were ready for use.
For GIPR, CHO-K1 cells were cultured in F-12 medium with 10% FBS and seeded at a density of 30,000 cells/well in Isoplate-96 plates (PerkinElmer). […] Fifty µL of scintillation cocktail (OptiPhase SuperMix, PerkinElmer) were added and the plates were subsequently counted for radioactivity (counts per minute, CPM) in a MicroBeta^2 microplate counter (PerkinElmer).

The target in assay [10] is T2, GLP-1R (Homo sapiens, UniProt P43220, R299A).
T2 construct: Flag; expressed in transfected cells
Briefly: Whole-cell binding assay, competition with 125I-GLP-1(7-36)NH2. As to conditions: GLP-1R R299A; CHO-K1. The procedure:
as §2
(§3) For GLP-1R and GCGR, CHO-K1 cells (30,000 cells/well) were seeded into Isoplate-96 plates and incubated for 24 h at 37 °C in 5% CO2. […] After addition of scintillation cocktail (PerkinElmer), radioactivity (CPM) was counted on a MicroBeta^2 microplate counter (PerkinElmer). Data were normalized to the WT response and analyzed using three-parameter logistic equation.

The target of assay [11] is T3, GLP-1R (Homo sapiens, UniProt P43220, Y152A).
T3 construct: Flag; expressed in transfected cells
The assay is described as above. As to conditions: GLP-1R Y152A; CHO-K1. The procedure: as §2, §3

The mark [12] stands for this setting: read-out: binding pIC50 (converted).

GCGR (Homo sapiens, UniProt P47871, W87A), sequence (P47871 26-477 W87A): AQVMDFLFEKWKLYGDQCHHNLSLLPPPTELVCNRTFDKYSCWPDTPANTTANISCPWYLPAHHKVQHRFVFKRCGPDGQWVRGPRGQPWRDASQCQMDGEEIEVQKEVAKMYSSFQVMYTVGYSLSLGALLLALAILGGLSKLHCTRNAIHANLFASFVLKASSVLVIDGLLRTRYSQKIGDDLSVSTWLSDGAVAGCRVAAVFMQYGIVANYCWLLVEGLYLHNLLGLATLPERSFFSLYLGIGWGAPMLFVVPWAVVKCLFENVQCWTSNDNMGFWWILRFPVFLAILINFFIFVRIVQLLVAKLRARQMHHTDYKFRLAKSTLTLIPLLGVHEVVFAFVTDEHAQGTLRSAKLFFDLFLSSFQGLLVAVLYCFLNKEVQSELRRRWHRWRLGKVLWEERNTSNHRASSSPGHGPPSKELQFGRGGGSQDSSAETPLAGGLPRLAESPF
GCGR (Homo sapiens, UniProt P47871, W215A), sequence (P47871 26-477 W215A): as the sequence (P47871 26-477 W87A) above, with A62W, W190A counted along it
GCGR (Homo sapiens, UniProt P47871, Q293A), sequence (P47871 26-477 Q293A): as the sequence (P47871 26-477 W87A) above, with A62W, Q268A counted along it
GCGR (Homo sapiens, UniProt P47871, D195A/Q142A/R199A), sequence (P47871 26-477 Q142A/D195A/R199A): as the sequence (P47871 26-477 W87A) above, with A62W, Q117A, D170A, R174A counted along it
GCGR (Homo sapiens, UniProt P47871, R199A), sequence (P47871 26-477 R199A): as the sequence (P47871 26-477 W87A) above, with A62W, R174A counted along it
GCGR (Homo sapiens, UniProt P47871, Y202A), sequence (P47871 26-477 Y202A): as the sequence (P47871 26-477 W87A) above, with A62W, Y177A counted along it
GCGR (Homo sapiens, UniProt P47871, K205A), sequence (P47871 26-477 K205A): as the sequence (P47871 26-477 W87A) above, with A62W, K180A counted along it
GCGR (Homo sapiens, UniProt P47871, D195A), sequence (P47871 26-477 D195A): as the sequence (P47871 26-477 W87A) above, with A62W, D170A counted along it
T3 sequence (P43220 24-463 Y152A): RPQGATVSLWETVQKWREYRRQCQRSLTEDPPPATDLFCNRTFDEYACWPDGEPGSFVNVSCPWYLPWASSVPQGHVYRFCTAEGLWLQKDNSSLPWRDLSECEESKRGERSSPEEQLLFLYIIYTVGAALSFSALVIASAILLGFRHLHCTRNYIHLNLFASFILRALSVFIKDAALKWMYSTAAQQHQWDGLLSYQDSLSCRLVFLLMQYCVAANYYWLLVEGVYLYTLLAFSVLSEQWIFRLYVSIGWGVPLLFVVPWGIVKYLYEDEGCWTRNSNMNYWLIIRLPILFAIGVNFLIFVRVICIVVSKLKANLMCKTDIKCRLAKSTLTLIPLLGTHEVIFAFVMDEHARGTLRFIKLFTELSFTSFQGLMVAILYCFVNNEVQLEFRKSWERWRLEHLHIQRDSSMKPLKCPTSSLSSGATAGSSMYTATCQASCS
T1 sequence (P48546 22-466 Y145A): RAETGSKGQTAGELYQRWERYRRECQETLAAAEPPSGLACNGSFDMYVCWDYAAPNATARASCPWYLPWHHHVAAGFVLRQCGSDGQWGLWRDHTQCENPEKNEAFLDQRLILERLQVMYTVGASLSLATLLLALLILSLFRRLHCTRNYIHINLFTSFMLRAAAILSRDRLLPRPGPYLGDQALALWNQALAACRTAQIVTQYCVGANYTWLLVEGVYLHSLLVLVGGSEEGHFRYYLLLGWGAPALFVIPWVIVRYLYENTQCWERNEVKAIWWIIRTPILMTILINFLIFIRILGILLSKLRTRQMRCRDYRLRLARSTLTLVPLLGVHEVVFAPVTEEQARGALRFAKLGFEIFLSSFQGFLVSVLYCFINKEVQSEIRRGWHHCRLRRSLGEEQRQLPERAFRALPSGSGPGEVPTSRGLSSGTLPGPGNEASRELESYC
T2 sequence (P43220 24-463 R299A): as the sequence (P43220 24-463 Y152A) above, with A129Y, R276A counted along it

Take `CCCCCCCCCCCCCCCC(=O)N[C@@H](CCC(=O)NCCCC[C@H](NC(=O)[C@H](CC(=O)O)NC(=O)[C@H](CO)NC(=O)[C@@H](NC(=O)[C@H](Cc1ccccc1)NC(=O)[C@@H](NC(=O)CNC(=O)[C@H](CCC(N)=O)NC(=O)C(C)(C)NC(=O)[C@@H](N)Cc1c[nH]cn1)[C@@H](C)O)[C@@H](C)O)C(=O)N[C@@H](CO)C(=O)N[C@@H](CCCCN)C(=O)N[C@@H](Cc1ccc(O)cc1)C(=O)N[C@@H](CC(C)C)C(=O)N[C@@H](CC(=O)O)C(=O)N[C@@H](CCC(=O)O)C(=O)N[C@@H](CCCNC(=N)N)C(=O)N[C@@H](C)C(=O)N[C@@H](C)C(=O)N[C@@H](CCC(N)=O)C(=O)N[C@@H](CC(=O)O)C(=O)N[C@@H](Cc1ccccc1)C(=O)N[C@H](C(=O)N[C@@H](CCC(N)=O)C(=O)N[C@@H](Cc1c[nH]c2ccccc12)C(=O)N[C@@H](CC(C)C)C(=O)N[C@@H](CC(C)C)C(=O)N[C@@H](CC(=O)O)C(=O)NCC(=O)NCC(=O)N1CCC[C@H]1C(=O)N[C@@H](CO)C(=O)N[C@@H](CO)C(=O)NCC(=O)N[C@@H](C)C(=O)N1CCC[C@H]1C(=O)N1CCC[C@H]1C(=O)N1CCC[C@H]1C(=O)N[C@@H](CO)C(N)=O)C(C)C)C(=O)O` [Peptide 20]: the “binding Span” value in [1] is listed as 59.87 ± 5.43 % WT; in [2], 24.37 ± 1.80 % WT; in assay [3], 5.12 ± 1.71 % WT; in assay [5], 135.17 ± 6.41 % WT; in assay [6] it was 7.72 ± 2.74 % WT; in [7], 4.68 ± 2.95 % WT. Further, the “binding Span” value in assay [8] came to 130.88 ± 9.06 % WT. The IC50 in [1] (setting [12]) was 178 nM; in assay [2] (setting [12]), 30.2 nM; in assay [3] (setting [12]) it was 18.6 nM; in assay [4] it was 25.7 nM; in assay [5] (setting [12]), 132 nM; in assay [6] (setting [12]) it was 145 nM. Also, the IC50 is 1.51 nM in [7] (setting [12]) and 182 nM in [8] (setting [12]).
`CC[C@H](C)[C@H](NC(=O)[C@H](CC(C)C)NC(=O)[C@H](Cc1c[nH]c2ccccc12)NC(=O)[C@H](CCC(N)=O)NC(=O)[C@@H](NC(=O)[C@H](Cc1ccccc1)NC(=O)[C@H](C)NC(=O)[C@H](CCCCNC(=O)COCCOCCNC(=O)COCCOCCNC(=O)CC[C@H](NC(=O)CCCCCCCCCCCCCCCCCCC(=O)O)C(=O)O)NC(=O)[C@H](CCC(N)=O)NC(=O)[C@H](C)NC(=O)[C@@H](NC(=O)[C@H](CCCCN)NC(=O)[C@H](CC(=O)O)NC(=O)[C@H](CC(C)C)NC(=O)C(C)(C)NC(=O)[C@@H](NC(=O)[C@H](CO)NC(=O)[C@H](Cc1ccc(O)cc1)NC(=O)[C@H](CC(=O)O)NC(=O)[C@H](CO)NC(=O)[C@@H](NC(=O)[C@H](Cc1ccccc1)NC(=O)[C@@H](NC(=O)CNC(=O)[C@H](CCC(=O)O)NC(=O)C(C)(C)NC(=O)[C@@H](N)Cc1ccc(O)cc1)[C@@H](C)O)[C@@H](C)O)[C@@H](C)CC)[C@@H](C)CC)C(C)C)C(=O)N[C@@H](C)C(=O)NCC(=O)NCC(=O)N1CCC[C@H]1C(=O)N[C@@H](CO)C(=O)N[C@@H](CO)C(=O)NCC(=O)N[C@@H](C)C(=O)N1CCC[C@H]1C(=O)N1CCC[C@H]1C(=O)N1CCC[C@H]1C(=O)N[C@@H](CO)C(N)=O` [Tirzepatide]: the “binding pIC50” value in assay [9] is listed as “N.B”. Also, the “binding Span” value turned out to be 8.59 ± 1.61 % WT in assay [10] and 11.22 ± 2.82 % WT in assay [11].
